28 molecules from patent US20220370453A1 (Storm Therapeutics Ltd, priority 2019, published 2022) can be followed below.

What is called IC50 is the concentration needed to halve the response being measured. Low readings indicate inhibition by little substance, high ones a need for much substance.

The target in assay [1] is T1, BCDIN3D (Homo sapiens, UniProt Q7Z5W3).
T1 sequence (Q7Z5W3 1-292): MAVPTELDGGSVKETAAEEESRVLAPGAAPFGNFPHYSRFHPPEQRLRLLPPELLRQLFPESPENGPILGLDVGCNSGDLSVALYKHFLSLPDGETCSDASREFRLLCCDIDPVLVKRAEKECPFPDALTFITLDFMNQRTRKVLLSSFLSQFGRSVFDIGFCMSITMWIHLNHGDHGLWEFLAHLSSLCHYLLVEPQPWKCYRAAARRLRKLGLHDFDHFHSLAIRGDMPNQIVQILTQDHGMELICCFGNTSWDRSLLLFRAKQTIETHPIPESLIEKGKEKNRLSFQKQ
The assay can be described thus: BCDIN3D IC50 RFMS (RapidFire) assay with mini-helix. To be noted: 25 nM enzyme. It is filed as biochemical. Summed up:
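25 nM enzyme preincubated 10 min at room temperature with compound (1% DMSO) in 25 mM Tris pH 8.0, 10 mM DTT, 1 mM EDTA, 0.03% BSA. Reaction started with 0.2 μM mini-helix plus 6 μM SAM, run 1 h at 37 °C, quenched with TCA; SAH product quantified by RapidFire MS against isotopic SAH standards.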

Assay [2] deals with T1, BCDIN3D. The assay can be described thus: BCDIN3D InCellPulse thermal stability assay in transfected A549 cells. It is filed as cell-based. To be noted: heat shock 58° C. 15 min. Put shortly: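 A549 cells transiently expressing BCDIN3D N-terminally fused to ePL ProLabel tag, 1500 cells/well, pre-incubated 1 h at 37 °C with compound (0.6% DMSO). Heat shock 58 °C for 15 min; remaining soluble fusion detected by split β-galactosidase complementation luminescence.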

[3] abbreviates: mini-helix 0.2 μM and SAM 6 μM as substrates, 1 hr at 37° C.
Setting [4] is: A549 cells transiently transfected with ePL-BCDIN3D, 1 h pre-incubation.
[5] abbreviates: mini-helix substrate 0.2 μM, SAM 6 μM.
Setting [6] is: transiently transfected A549 cells.

Regarding `COc1ccc(CNc2nc(NCCN)nc3c2cnn3C)cc1Cl` [Compound 1.25, N6-(2-aminoethyl)-N4-[(3-chloro-4-methoxyphenyl)methyl]-1methyl-1H-pyrazolo[3,4-d]pyrimidine-4,6-diamine], the IC50 in assay [1] (setting [3]) worked out at 1660 nM; in assay [2] (setting [4]), 7720 nM.
As for `Cn1ncc2c(NC3CC4(CCC4)C3)nc(NC[C@H](N)c3ccccc3)nc21` [Compound 4.99, N6-[(2R)-2-amino-2-phenyl-ethyl]-1-methyl-N4-spiro[3.3]heptan-2-yl-pyrazolo[3,4-d]pyrimidine-4,6-diamine], the IC50 was found to be 8 nM in assay [1] (setting [5]) and 17 nM in assay [2] (setting [6]).
On to `C#Cc1cccc(C(N)CNc2nc(NC(C)(C)C)c3cnn(C)c3n2)c1` (centres unmarked) [Compound 5.05, N6-[2-Amino-2-(3-ethynylphenyl)ethyl]-N4-tert-butyl-1-methyl-pyrazolo[3,4-d]pyrimidine-4,6-diamine], for which the figures for the IC50 in assay [1] (setting [5]) and in assay [2] (setting [6]) were 51.8 nM and 68.3 nM, respectively.
With `[2H]C([2H])([2H])n1ncc2c(NC(C)(C)C)nc(NCC(C)(N)c3ccccc3)nc21` (centres unmarked) [Compound 4.01, N6-(2-Amino-2-phenyl-propyl)-N4-tert-butyl-1-(trideuteriomethyl)pyrazolo[3,4-d]pyrimidine-4,6-diamine], the IC50 in assay [1] (setting [5]) was found to be 325 nM; in assay [2] (setting [6]) it was 1940 nM.
`Cn1ncc2c(NCC(C)(C)F)nc(NC[C@H](N)c3ccccc3)nc21` [Compound 4.110, N6-[(2R)-2-amino-2-phenyl-ethyl]-N4-(2-fluoro-2-methyl-propyl)-1-methyl-pyrazolo[3,4-d]pyrimidine-4,6-diamine]: the values for the IC50 in assay [1] (setting [5]) and in assay [2] (setting [6]) were 553 nM and 672 nM, respectively.
Take `CC[C@@H](CN)Nc1nc(NCc2ccc(C)c(Cl)c2)c2cnn(C)c2n1` [Compound 3.05]: the IC50 in assay [1] (setting [5]) and in assay [2] (setting [6]) was 1440 nM each time.
Take `Cn1ncc2c(NC3CC(F)C3)nc(NC[C@H](N)c3ccccc3)nc21` (stereo partly drawn) [Compound 4.88, N6-[(2R)-2-amino-2-phenyl-ethyl]-N4-(3-fluorocyclobutyl)-1-methyl-pyrazolo[3,4-d]pyrimidine-4,6-diamine]: the results for the IC50 in assay [1] (setting [5]) and in assay [2] (setting [6]) were 112 nM and 148 nM, respectively.
Take `Cn1ncc2c(NCC(F)(F)F)nc(NC[C@@H](N)c3ccccc3)nc21` [Compound 7.07, N6-[(2S)-2-amino-2-phenyl-ethyl]-1-methyl-N4-(2,2,2-trifluoroethyl)pyrazolo[3,4-d]pyrimidine-4,6-diamine]: the results for the half-inhibitory concentration (IC50) in assay [1] (setting [3]) and in assay [2] (setting [4]) were 5620 nM and 4120 nM, respectively.
`COc1ccc(CNc2nc(NCC(C)(C)N)nc3c2cnn3C)cc1Cl` [Compound 1.26, N6-(2-amino-2-methylpropyl)-N4-[(3-chloro-4-methoxyphenyl)methyl]-1-methyl-1H-pyrazolo[3,4-d]pyrimidine-4,6-diamine]: the IC50 in assay [1] (setting [3]) came out at 744 nM; in assay [2] (setting [4]), 1870 nM.
Regarding `Cn1ncc2c(Nc3ccc(C(F)(F)F)nc3)nc(NC[C@@H](N)c3ccccc3)nc21` [Compound 7.09, N6-[(2S)-2-amino-2-phenyl-ethyl]-1-methyl-N4-[6-(trifluoromethyl)-3-pyridyl]pyrazolo[3,4-d]pyrimidine-4,6-diamine], the IC50 in assay [1] (setting [3]) amounted to 209 nM; in assay [2] (setting [4]), 414 nM.
`Cn1ncc2c(Nc3ccc(C(F)(F)F)nc3)nc(NCC3(N)CCCC3)nc21` [Compound 3.19, 6-N-[(1-aminocyclopentyl)methyl]-1-methyl-4-N-[6-(trifluoromethyl)pyridin-3-yl]pyrazolo[3,4-d]pyrimidine-4,6-diamine]: the IC50 in assay [1] (setting [5]) amounted to 357 nM; in assay [2] (setting [6]) it was 1240 nM.
As for `Cn1ncc2c(NCc3ccc(-c4ccccc4)cc3)nc(NCC(C)(C)N)nc21` [Compound 1.28, N6-(2-amino-2-methylpropyl)-N4-({[1,1′-biphenyl]-4-yl}methyl)-1-methyl-1H-pyrazolo[3,4-d]pyrimidine-4,6-diamine], the half-inhibitory concentration (IC50) in assay [1] (setting [3]) came out at 1110 nM; in assay [2] (setting [4]), 765 nM.
With `Cn1ncc2c(Nc3ccc(Cl)cn3)nc(NCC3(N)CC3)nc21` [Compound 2.46, 6-N-[(1-aminocyclopropyl)methyl]-4-N-(5-chloropyridin-2-yl)-1-methylpyrazolo[3,4-d]pyrimidine-4,6-diamine], the IC50 in assay [1] (setting [5]) amounted to 2100 nM; in assay [2] (setting [6]) it was 6530 nM.
In the case of `Cn1ncc2c(NC3CC(F)(F)C3)nc(NCC(N)c3cccnc3)nc21` (centres unmarked) [Compound 5.25, N6-[2-amino-2-(3-pyridyl)ethyl]-N4-(3,3-difluorocyclobutyl)-1-methyl-pyrazolo[3,4-d]pyrimidine-4,6-diamine], the IC50 came to 1810 nM in assay [1] (setting [5]) and 5580 nM in assay [2] (setting [6]).
Take `Cn1ncc2c(NC(C3CC3)C3CC3)nc(NCC(N)c3ccccc3)nc21` (centres unmarked) [Compound 4.57, N6-(2-amino-2-phenyl-ethyl)-N4-(dicyclopropylmethyl)-1-methyl-pyrazolo[3,4-d]pyrimidine-4,6-diamine]: the IC50 in assay [1] (setting [5]) worked out at 6450 nM; in assay [2] (setting [6]), 2720 nM.
As to `Cn1ncc2c(Nc3ccc(C(F)(F)F)cc3)nc(NC[C@H](N)c3ccccc3)nc21` [Compound 4.22, 6-N-[(2R)-2-amino-2-phenylethyl]-1-methyl-4-N-[4-(trifluoromethyl)phenyl]pyrazolo[3,4-d]pyrimidine-4,6-diamine], the concentration for half-maximal inhibition (IC50) in assay [1] (setting [5]) was determined as 34.1 nM; in assay [2] (setting [6]) it was 29.9 nM.
Take `Cn1ncc2c(NC(C)(C)C)nc(NC[C@H](N)c3ccc(C#N)cc3)nc21` [Compound 5.28, 4-[(1R)-1-amino-2-{[4-(tert-butylamino)-1-methyl-1H-pyrazolo[3,4-d]pyrimidin-6-yl]amino}ethyl]benzonitrile]: the IC50 in assay [1] (setting [5]) worked out at 90 nM; in assay [2] (setting [6]), 370 nM.
In the case of `Cn1ncc2c(Nc3ccc(C(F)(F)F)cc3)nc(NCC(C)(N)c3ccccc3)nc21` (centres unmarked) [Compound 4.19, N6-(2-amino-2-phenyl-propyl)-1-methyl-N4-[4-(trifluoromethyl)phenyl]pyrazolo[3,4-d]pyrimidine-4,6-diamine], the figures for the IC50 in assay [1] (setting [5]) and in assay [2] (setting [6]) were 36.1 nM and 86.4 nM, respectively.
Take `Cn1ncc2c(Nc3ccc(Oc4ccccc4)cc3)nc(NCCN)nc21` [Compound 1.03, N6-(2-aminoethyl)-1-methyl-N4-(4-phenoxyphenyl)-1H-pyrazolo[3,4-d]pyrimidine-4,6-diamine]: the IC50 came to 975 nM in assay [1] (setting [3]) and 918 nM in assay [2] (setting [4]).
On to `Cc1ccc(CNc2nc(NCC(N)c3ccccn3)nc3c2cnn3C)cc1Cl` (centres unmarked) [Compound 5.02], for which the IC50 in assay [1] (setting [5]) stood at 217 nM; in assay [2] (setting [6]), 944 nM.
As for `Cn1ncc2c(OC(C)(C)C)nc(NCC(N)c3ccccc3)nc21` (centres unmarked) [Compound 6.05, N′-(4-tert-butoxy-1-methyl-pyrazolo[3,4-d]pyrimidin-6-yl)-1-phenyl-ethane-1,2-diamine], the IC50 in assay [1] (setting [3]) came to 4160 nM; in assay [2] (setting [4]), 5140 nM.
As to `Cn1ncc2c(NC3CC4(C3)CC(F)(F)C4)nc(NCC(N)c3ccccc3)nc21` (centres unmarked) [Compound 4.82, N6-(2-amino-2-phenyl-ethyl)-N4-(2,2-difluorospiro[3.3]heptan-6-yl)-1-methyl-pyrazolo[3,4-d]pyrimidine-4,6-diamine], the IC50 in assay [1] (setting [5]) turned out to be 25.6 nM; in assay [2] (setting [6]), 40.8 nM.
With `Cn1ncc2c(NC34CC(c5ccccc5)(C3)C4)nc(NCC3(N)CC3)nc21` [Compound 2.18, N6-[(1-aminocyclopropyl)methyl]-1-methyl-N4-(1-phenyl-3-bicyclo[1.1.1]pentanyl)pyrazolo[3,4-d]pyrimidine-4,6-diamine], the IC50 in assay [1] (setting [5]) was 111 nM; in assay [2] (setting [6]), 207 nM.
Turning to `CC(C)Nc1nc(NCC(N)c2ccc(Br)cc2)nc2c1cnn2C` (centres unmarked) [Compound 5.19, 6-N-[2-amino-2-(4-bromophenyl)ethyl]-1-methyl-4-N-propan-2-ylpyrazolo[3,4-d]pyrimidine-4,6-diamine], the IC50 was 375 nM in assay [1] (setting [5]) and 767 nM in assay [2] (setting [6]).
On the same counts, the results for `[2H]C([2H])([2H])n1ncc2c(Nc3ccc(C(F)(F)F)cc3)nc(NCC(N)c3ccccc3)nc21` (centres unmarked) [Compound 4.20, N6-(2-amino-2-phenyl-ethyl)-1-(trideuteriomethyl)-N4-[4-(trifluoromethyl)phenyl]pyrazolo[3,4-d]pyrimidine-4,6-diamine] are 38.5 nM and 60.4 nM.
On the same counts, the results for `Cc1ccc(CNc2nc(NCC(N)CF)nc3c2cnn3C)cc1Cl` (centres unmarked) [Compound 3.25, N6-(2-Amino-3-fluoropropyl)-N4-[(3-chloro-4-methylphenyl)methyl]-1-methyl-1H-pyrazolo[3,4-d]pyrimidine-4,6-diamine] are 6170 nM and 5500 nM.
For the molecule `CCn1ncc2c(NC(C)C)nc(NCC(N)c3ccccc3)nc21` (centres unmarked) [Compound 4.02, 6-N-(2-Amino-2-phenylethyl)-1-ethyl-4-N-propan-2-ylpyrazolo[3,4-d]pyrimidine-4,6-diamine], the results for the concentration for half-maximal inhibition (IC50) in assay [1] (setting [5]) and in assay [2] (setting [6]) were 4280 nM and 5670 nM, respectively.
For `Cn1ncc2c(NC(C)(C)C)nc(NCC(N)c3cccc(C#N)c3)nc21` (centres unmarked) [Compound 5.22, 3-[1-amino-2-[[4-(tert-butylamino)-1-methyl-pyrazolo[3,4-d]pyrimidin-6-yl]amino]ethyl]benzonitrile] the same measures were 42.8 nM and 129 nM.
